Source: patent US8501770B2 (ArQule, Inc., priority 2009, dated 2013)
Where a name gives a salt, the structure may show the parent alone.

What follows are molecules tested against Full-length inactive AKT1 (Homo sapiens, UniProt P31749) (assay: Inactive Akt Alpha Screen Assay). Conditions: AlphaScreen assay (values not marked with *); read-out: Akt1 IC50, (AlphaScreen) (μM) (or if marked with “*” HTRF assay).
Format: biochemical
Method in brief: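 AlphaScreen read-out (excitation 640 nm, emission 570 nm) after 90 min incubation at room temperature in the dark. Signal comes from crosstide phosphorylation by AKT1, which was activated by added PDK1, MAPKAPK2, ATP and lipid vesicles, captured via phospho-AKT substrate antibody and streptavidin beads.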

Full-length inactive AKT1, sequence (P31749 whole entry): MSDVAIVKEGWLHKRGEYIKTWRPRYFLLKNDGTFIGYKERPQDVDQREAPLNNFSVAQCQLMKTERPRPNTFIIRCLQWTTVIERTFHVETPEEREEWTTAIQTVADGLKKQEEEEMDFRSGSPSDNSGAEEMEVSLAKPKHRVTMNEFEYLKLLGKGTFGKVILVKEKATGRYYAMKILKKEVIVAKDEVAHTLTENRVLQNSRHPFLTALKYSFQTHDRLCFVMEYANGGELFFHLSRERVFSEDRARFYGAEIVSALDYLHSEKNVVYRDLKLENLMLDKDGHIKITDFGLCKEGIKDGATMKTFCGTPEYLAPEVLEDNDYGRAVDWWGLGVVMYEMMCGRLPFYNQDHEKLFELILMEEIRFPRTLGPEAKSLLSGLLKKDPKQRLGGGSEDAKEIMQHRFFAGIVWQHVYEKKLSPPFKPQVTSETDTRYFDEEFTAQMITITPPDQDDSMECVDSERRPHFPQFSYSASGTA

SMILES | IC50 [µM]
CCNC(=O)c1cccc(-c2ccc3nc(-c4cccnc4N)n(-c4ccc(C5(N)CCC5)cc4)c3n2)c1 [Example 441, 3-{3-[4-(1-aminocyclobutyl)phenyl]-2-(2-aminopyridin-3-yl)-3H-imidazo[4,5-b]pyridin-5-yl}-N-ethylbenzamide] | 0.0066
Nc1ncccc1-c1nc2ccc(-c3cc(O)ccc3F)nc2n1-c1ccc(C2(N)CCC2)cc1 [Example 437, 3-{3-[4-(1-aminocyclobutyl)phenyl]-2-(2-aminopyridin-3-yl)-3H-imidazo[4,5-b]pyridin-5-yl}-4-fluorophenol] | 0.014
Nc1ncccc1-c1nc2ccc(-c3ccc(N4CCOCC4)cc3)nc2n1-c1ccc(C2(N)CCC2)cc1 [Example 465, 3-{3-[4-(1-aminocyclobutyl)phenyl]-5-(4-morpholin-4-ylphenyl)-3H-imidazo[4,5-b]pyridin-2-yl}pyridin-2-amine hydrochloride] | 0.0058
Nc1ncccc1-c1nc2ccc(-c3cccc(N4CCOCC4=O)c3)nc2n1-c1ccc(C2(N)CCC2)cc1 [Example 466, 4-(3-{3-[4-(1-aminocyclobutyl)phenyl]-2-(2-aminopyridin-3-yl)-3H-imidazo[4,5-b]pyridin-5-yl}phenyl)morpholin-3-one hydrochloride] | 0.0035

Same assay, conditions: values not marked with "*": AlphaScreen assay; read-out: Akt1 IC50, (AlphaScreen)

SMILES | IC50 [µM]
Nc1ncccc1-c1nc2cccnc2n1-c1ccc(CNC(=O)c2ccc(F)cc2)cc1 [Example 81] | 1.37
CC1=NN(c2ccc(C(=O)NCc3ccc(-n4c(-c5cccnc5N)nc5cccnc54)cc3)cc2)C(=O)C1 [Example 79] | 1.11
Nc1ncccc1-c1nc2cc(-c3ccncc3)cnc2n1-c1ccc(CNC(=O)c2ccccc2)cc1 [Example 145, N-{4-[2-(2-aminopyridin-3-yl)-6-pyridin-4-yl-3H-imidazo[4,5-b]pyridin-3-yl]benzyl}benzamide] | 0.16
Nc1ncccc1-c1nc2cccnc2n1-c1ccc(C2CCCCC2)cc1 [Example 17] | 3.9
Nc1ncccc1-c1nc2cc(Br)cnc2n1-c1ccc(CNS(=O)(=O)c2ccccc2Cl)cc1 [Example 147, N-{4-[2-(2-aminopyridin-3-yl)-6-bromo-3H-imidazo[4,5-b]pyridin-3-yl]benzyl}-2-chlorobenzenesulfonamide] | 0.44
Nc1ncccc1-c1nc2cccnc2n1-c1ccc(CNC(=O)C2Cc3ccccc3C2)cc1 [Example 75] | 0.179
Nc1ncccc1-c1nc2cccnc2n1-c1ccc(CNS(=O)(=O)c2ccsc2)cc1 [Example 100] | 0.158
CS(=O)(=O)c1ccc(-c2cnc3c(c2)nc(-c2cccnc2N)n3-c2ccc(CNC(=O)c3ccccc3)cc2)cc1 [Example 138, N-(4-{2-(2-aminopyridin-3-yl)-6-[4-(methylsulfonyl)phenyl]-3H-imidazo[4,5-b]pyridin-3-yl}benzyl)benzamide] | 0.12

Same assay, conditions: values not marked with "*"; read-out: Akt1 IC50, (AlphaScreen)

SMILES | IC50 [µM]
Cc1cnc2c(c1)nc(-c1cccnc1N)n2-c1ccc(CC(=O)Nc2ccc3nc(C)ccc3c2)cc1 [Example 194, 2-(4-(2-(2-aminopyridin-3-yl)-6-methyl-3H-imidazo[4,5-b]pyridin-3-yl)phenyl)-N-(2-methylquinolin-6-yl)acetamide] | 0.047
CC(=O)Nc1ccc(C(=O)NCc2ccc(-n3c(-c4cccnc4N)nc4cc(-c5cccnc5)cnc43)cc2)cc1 [Example 238, 4-acetamido-N-(4-(2-(2-aminopyridin-3-yl)-6-(pyridin-3-yl)-3H-imidazo[4,5-b]pyridin-3-yl)benzyl)benzamide] | 0.042
Cc1ccc(S(=O)(=O)NCc2ccc(-n3c(-c4cccnc4N)nc4cc(Br)cnc43)cc2)cc1 [Example 162, N-{4-[2-(2-aminopyridin-3-yl)-6-bromo-3H-imidazo[4,5-b]pyridin-3-yl]benzyl}-4-methylbenzenesulfonamide] | 0.45
Cc1cnc2c(c1)nc(-c1cccnc1N)n2-c1ccc(CNC(=O)c2ccc(C(C)C)cc2)cc1 [Example 230, N-(4-(2-(2-aminopyridin-3-yl)-6-methyl-3H-imidazo[4,5-b]pyridin-3-yl)benzyl)-4-isopropylbenzamide] | 0.19
NCc1ccc(-c2ccc3nc(-c4cccnc4N)n(-c4ccc(CNC(=O)c5cccc(F)c5)cc4)c3n2)cc1 [Example 314, N-(4-(5-(4-(aminomethyl)phenyl)-2-(2-aminopyridin-3-yl)-3H-imidazo[4,5-b]pyridin-3-yl)benzyl)-3-fluorobenzamide] | 0.025
COc1ccc(S(=O)(=O)NCc2ccc(-n3c(-c4cccnc4N)nc4cc(Br)cnc43)cc2)cc1 [Example 177, N-{4-[2-(2-aminopyridin-3-yl)-6-bromo-3H-imidazo[4,5-b]pyridin-3-yl]benzyl}-4-methoxybenzenesulfonamide] | 2.1
Nc1ncccc1-c1nc2ccc(-c3ccco3)nc2n1-c1ccc(CNC(=O)c2cccc(F)c2)cc1 [Example 316, N-(4-(2-(2-aminopyridin-3-yl)-5-(furan-2-yl)-3H-imidazo[4,5-b]pyridin-3-yl)benzyl)-3-fluorobenzamide] | 0.035
Nc1ncccc1-c1nc2ccc(N3CCCCC3)nc2n1-c1ccc(CNC(=O)c2ccccc2)cc1 [Example 192, N-(4-(2-(2-aminopyridin-3-yl)-5-(piperidin-1-yl)-3H-imidazo[4,5-b]pyridin-3-yl)benzyl)benzamide] | 0.2
Nc1ncccc1-c1nc2cc(-c3cccnc3)cnc2n1-c1ccc(CNS(=O)(=O)c2ccccc2)cc1 [Example 200, N-(4-(2-(2-aminopyridin-3-yl)-6-(pyridin-3-yl)-3H-imidazo[4,5-b]pyridin-3-yl)benzyl)benzenesulfonamide] | 0.074
Cc1cccc(C(=O)NCc2ccc(-n3c(-c4cccnc4N)nc4cc(C)cnc43)cc2)c1 [Example 216, N-(4-(2-(2-aminopyridin-3-yl)-6-methyl-3H-imidazo[4,5-b]pyridin-3-yl)benzyl)-3-methylbenzamide] | 0.077
COC(=O)c1cccc(C(=O)NCc2ccc(-n3c(-c4cccnc4N)nc4cc(C)cnc43)cc2)c1 [Example 270, methyl 3-((4-(2-(2-aminopyridin-3-yl)-6-methyl-3H-imidazo[4,5-b]pyridin-3-yl)benzyl)carbamoyl)benzoate] | 0.24
COc1ccc(Nc2ccc3nc(-c4cccnc4N)n(-c4ccc(CNC(=O)c5ccccc5)cc4)c3n2)cc1 [Example 175] | 0.6
N#Cc1cccc(-c2ccc3nc(-c4cccnc4N)n(-c4ccc(CNC(=O)c5cccc(F)c5)cc4)c3n2)c1 [Example 335, N-(4-(2-(2-aminopyridin-3-yl)-5-(3-cyanophenyl)-3H-imidazo[4,5-b]pyridin-3-yl)benzyl)-3-fluorobenzamide] | 0.182
Cc1cc2nc(-c3cccnc3N)n(-c3ccc(CNC(=O)c4ccccc4)cc3)c2nc1-c1ccccc1 [Example 345, N-(4-(2-(2-aminopyridin-3-yl)-6-methyl-5-phenyl-3H-imidazo[4,5-b]pyridin-3-yl)benzyl)benzamide] | 0.044
Cc1ccnc2c1nc(-c1cccnc1N)n2-c1ccc(CNC(=O)c2cccc(F)c2)cc1 [Example 190, N-(4-(2-(2-aminopyridin-3-yl)-7-methyl-3H-imidazo[4,5-b]pyridin-3-yl)benzyl)-3-fluorobenzamide] | 0.11
Nc1ncccc1-c1nc2ccc(-c3cccc(OC(F)(F)F)c3)nc2n1-c1ccc(C2(N)CCC2)cc1 [Example 426, 3-{3-[4-(1-aminocyclobutyl)phenyl]-5-[3-(trifluoromethoxy)phenyl]-3H-imidazo[4,5-b]pyridin-2-yl}pyridin-2-amine] | 0.005
Nc1ncccc1-c1nc2ccc(-c3cnccn3)nc2n1-c1ccc(C2(N)CCC2)cc1 [Example 401, 3-(3-(4-(1-aminocyclobutyl)phenyl)-5-(pyrazin-2-yl)-3H-imidazo[4,5-b]pyridin-2-yl)pyridin-2-amine] | 0.0064
Cc1ccc2nc(-c3cccnc3N)n(-c3ccc(CNC(=O)c4cccc(F)c4)cc3)c2n1 [Example 247, N-(4-(2-(2-aminopyridin-3-yl)-5-methyl-3H-imidazo[4,5-b]pyridin-3-yl)benzyl)-3-fluorobenzamide] | 0.016
COCc1cccc(-c2ccc3nc(-c4cccnc4N)n(-c4ccc(C5(N)CCC5)cc4)c3n2)c1 [Example 412, 3-{3-[4-(1-aminocyclobutyl)phenyl]-5-[3-(methoxymethyl)phenyl]-3H-imidazo[4,5-b]pyridin-2-yl}pyridin-2-amine] | 0.004
Cc1cnc2c(c1)nc(-c1cccnc1N)n2-c1ccc(CNC(=O)c2ccc(C)s2)cc1 [Example 280, N-(4-(2-(2-aminopyridin-3-yl)-6-methyl-3H-imidazo[4,5-b]pyridin-3-yl)benzyl)-5-methylthiophene-2-carboxamide] | 0.11
Cc1cnc2c(c1)nc(-c1cccnc1N)n2-c1ccc(CNC(=O)c2ccc(Cl)cc2F)cc1 [Example 217, N-(4-(2-(2-aminopyridin-3-yl)-6-methyl-3H-imidazo[4,5-b]pyridin-3-yl)benzyl)-4-chloro-2-fluorobenzamide] | 0.084
CC(C)(C)OC(=O)NCc1ccc(-n2c(-c3cccnc3N)nc3ccc(-c4ccccc4)nc32)cc1 [Example 355, tert-butyl 4-(2-(2-aminopyridin-3-yl)-5-phenyl-3H-imidazo[4,5-b]pyridin-3-yl)benzylcarbamate] | 0.27
Cc1cnc2c(c1)nc(-c1cccnc1N)n2-c1ccc(CNC(=O)c2cnccn2)cc1 [Example 285, N-(4-(2-(2-aminopyridin-3-yl)-6-methyl-3H-imidazo[4,5-b]pyridin-3-yl)benzyl)pyrazine-2-carboxamide] | 0.85
Nc1ncccc1-c1nc2ccc(-c3cccc(C(=O)NCCO)c3)nc2n1-c1ccc(C2(N)CCC2)cc1 [Example 385, 3-(3-(4-(1-aminocyclobutyl)phenyl)-2-(2-aminopyridin-3-yl)-3H-imidazo[4,5-b]pyridin-5-yl)-N-(2-hydroxyethyl)benzamide] | 0.0028
